Key:
OPCs [1] = settings: cells cultured 72 hrs with 1 μM staurosporine; background 10,000 cpm; Ebner 2000; cited from earlier work
[2] = system: oligodendrocyte progenitors; assay: Quantitative 3H-thymidine incorporation proliferation assay; type: cell-based; settings: recombinant growth factor; background 500-1000 cpm without growth factor
Description: Proliferation assay: The ability of oligodendrocyte progenitors to generate a mitogenic response to specific ligands is measured in a quantitative ^3H-thymidine incorporation assay. Cells are exposed to growth factors, in a dose range that brackets the maximal response to FGF and PDGF, in order to determine the half-maximal response. Responses range from a background of 500-1000 cpm (no growth factor) to 10,000 cpm (recombinant PDGF-AA), and the assay is sufficiently sensitive to accurately detect partial mitogenic responses. All cell proliferation assays are optionally performed at least three independent times. For qualitative assays, cells are exposed to mitogens with 50 μM BrdU (Sigma) present for the final 4 hrs, and DNA synthesis is monitored by dual immunofluorescence for BrdU (Osterhout et al., J. Neurosci. 17:9122-9132 (1997)) and a second lineage marker.
Proliferation assays are performed on cells that have been removed from mitogens for 24 hrs prior to exposure to recombinant growth factors to reduce background levels of DNA synthesis. […] Nucleic acid is recovered using an automatic harvester (Brandel) and the incorporated radioactivity measured by scintillation counting. […]

OPCs [3] = settings: background migration 1,000 cells/mm^2; Armstrong et al. 1990; cited from earlier work

Compound | 32P incorporation into 3'-ends of DNA (OPCs [1]) | mitogenic response, 3H-thymidine incorporation [2] | chemotaxis, cells migrated (OPCs [3])
CN[C@@H]1C[C@H]2O[C@@](C)([C@@H]1OC)n1c3ccccc3c3c4c(c5c6ccccc6n2c5c31)C(=O)NC4 [staurosporine] | 100,000 cpm |  | 
PDGF-AA: recombinant (human) polypeptide growth factor, oligodendrocyte progenitor cell mitogen |  | 10,000 cpm | 4,000 cells/mm^2

Reference: patent publication US8071376B2, “Production of oligodendrocytes from placenta-derived stem cells” (Anthrogenesis Corporation, priority 2005, dated 2011)
